Experimental data from ChEMBL document CHEMBL3112496, “C1,C2-ether derivatives of the Amaryllidaceae alkaloid lycorine: retention of activity of highly lipophilic analogues against cancer cells” (Bioorg Med Chem Lett, 2014).

Assays:
A549 = assay: Growth inhibition of human A549 cells by MTT assay; assay type: functional
SK-MEL-28 = assay: Growth inhibition of human SK-MEL-28 cells by MTT assay; assay type: functional
B16-F10 = assay: Growth inhibition of mouse B16F10 cells by MTT assay; assay type: functional
[1] = Growth inhibition of human Hs683 cells by MTT assay; assay type: functional; settings: Hs 683
MCF7 = assay: Growth inhibition of human MCF7 cells by MTT assay; assay type: functional
T98G = assay: Growth inhibition of human T98G cells by MTT assay; assay type: functional
[2] = Lipophilicity, log P of the compound; assay type: physicochemical; settings: octanol/water

Structure (SMILES) | GI50 (A549) [µM] | GI50 (SK-MEL-28) [µM] | GI50 (B16-F10) [µM] | GI50 [1] [µM] | GI50 (MCF7) [µM] | GI50 (T98G) [µM] | logP [2]
C#CCCCO[C@H]1C=C2CCN3Cc4cc5c(cc4[C@H]([C@@H]1O[Si](C(C)C)(C(C)C)C(C)C)[C@@H]23)OCO5 | 5.9 | 32 | 9 | 40 | 31 | 16 | 
C=CCCO[C@H]1C=C2CCN3Cc4cc5c(cc4[C@H]([C@@H]1O)[C@@H]23)OCO5 | 11 | 42 | 21 | 67 | 7.7 | 39 | 
O[C@H]1[C@H]2c3cc4c(cc3CN3CCC(=C[C@@H]1OCc1cccnc1)[C@H]23)OCO4 | 40 | 81 | 66 | > 100 | 80 | 75 | 
CC(C)=CCO[C@H]1[C@H]2c3cc4c(cc3CN3CCC(=C[C@@H]1OCC=C(C)C)[C@H]23)OCO4 | 4.4 | 10 | 5.3 | 9.7 | 9.5 | 24 | 
C#CCCCO[C@H]1C=C2CCN3Cc4cc5c(cc4[C@H]([C@@H]1O)[C@@H]23)OCO5 | 0.6 | 19 | 2.6 | 69 | 21 | 4.2 | 
O[C@H]1[C@H]2c3cc4c(cc3CN3CCC(=C[C@@H]1OCC1CCC1)[C@H]23)OCO4 | 27 | 41 | 22 | 50 | 37 | 50 | 
CCCO[C@H]1[C@H]2c3cc4c(cc3CN3CCC(=C[C@@H]1OCCC)[C@H]23)OCO4 | 4.9 | 19 | 13 | 8.1 | 19 | 24 | 
C#CCCCCO[C@H]1[C@H]2c3cc4c(cc3CN3CCC(=C[C@@H]1O[Si](C(C)C)(C(C)C)C(C)C)[C@H]23)OCO4 | 21 | 26 | 6.4 | 35 | 28 | 24 | 
CSCO[C@H]1C=C2CCN3Cc4cc5c(cc4[C@H]([C@@H]1O)[C@@H]23)OCO5 | 60 | > 100 | 51 | 86 | 70 | > 100 | 
O[C@H]1[C@H]2c3cc4c(cc3CN3CCC(=C[C@@H]1O)[C@H]23)OCO4 [LYCORINE] | 3 | 3.7 | 2.6 | 2.1 | 10.9 | 5.2 | -0.78
CC(C)[Si](O[C@H]1[C@H]2c3cc4c(cc3CN3CCC(=C[C@@H]1O)[C@H]23)OCO4)(C(C)C)C(C)C | 15 | 24 | 9.5 | 24 | 23 | 20 | 
C#CCCCCO[C@H]1C=C2CCN3Cc4cc5c(cc4[C@H]([C@@H]1O[Si](C(C)C)(C(C)C)C(C)C)[C@@H]23)OCO5 | 4.2 | 25 | 8.7 | 23 | 19 | 13 | 
C=CCO[C@H]1[C@H]2c3cc4c(cc3CN3CCC(=C[C@@H]1O[Si](C(C)C)(C(C)C)C(C)C)[C@H]23)OCO4 | 4.5 | 2.4 | 0.8 | 7.6 | 5 | 6.6 | 
COCCO[C@H]1C=C2CCN3Cc4cc5c(cc4[C@H]([C@@H]1O)[C@@H]23)OCO5 | 26 | 91 | 40 | > 100 | 74 | 47 | 
C#CCCCCO[C@H]1[C@H]2c3cc4c(cc3CN3CCC(=C[C@@H]1OCCCCC#C)[C@H]23)OCO4 | 2.8 | 16 | 10 | 29 | 16 | 6.8 | 
C1=C2CCN3Cc4cc5c(cc4[C@H]([C@H](OCc4cccnc4)[C@H]1OCc1cccnc1)[C@@H]23)OCO5 | 72 | > 100 | 85 | > 100 | 88 | 87 | 
C1=C2CCN3Cc4cc5c(cc4[C@H]([C@H](OC/C=C/c4ccccc4)[C@H]1OC/C=C/c1ccccc1)[C@@H]23)OCO5 | 5.5 | 8.7 | 4.2 | 11 | 4.2 | 22 | 
C#CCO[C@H]1C=C2CCN3Cc4cc5c(cc4[C@H]([C@@H]1O)[C@@H]23)OCO5 | 48 | > 100 | 42 | 81 | > 100 | > 100 | 

Structure (SMILES) | GI50 (A549) [µM] | GI50 (SK-MEL-28) [µM] | GI50 (B16-F10) [µM] | GI50 [1] [µM] | GI50 (MCF7) [µM] | GI50 (T98G) [µM] | logP [2]
CCO[C@H]1[C@H]2c3cc4c(cc3CN3CCC(=C[C@@H]1OCC)[C@H]23)OCO4 | 4 | 35 | 18 | 5.9 | 17 | 8.1 | 
CO[C@H]1[C@H]2c3cc4c(cc3CN3CCC(=C[C@@H]1O[Si](C(C)C)(C(C)C)C(C)C)[C@H]23)OCO4 | 19 | 28 | 8.9 | 41 | 28 | 19 | 
C#CCCCO[C@H]1[C@H]2c3cc4c(cc3CN3CCC(=C[C@@H]1O[Si](C(C)C)(C(C)C)C(C)C)[C@H]23)OCO4 | 19 | 28 | 7.6 | 33 | 27 | 21 | 
COCCO[C@H]1[C@H]2c3cc4c(cc3CN3CCC(=C[C@@H]1OCCOC)[C@H]23)OCO4 | 29 | 68 | 38 | > 100 | 44 | 33 | 
COCO[C@H]1C=C2CCN3Cc4cc5c(cc4[C@H]([C@@H]1O)[C@@H]23)OCO5 | 35 | 85 | 55 | > 100 | 85 | 48 | 
O[C@H]1[C@H]2c3cc4c(cc3CN3CCC(=C[C@@H]1OC/C=C/c1ccccc1)[C@H]23)OCO4 | 1.5 | 14 | 4.2 | 8.6 | 3.8 | 10 | 
C1=C2CCN3Cc4cc5c(cc4[C@H]([C@H](OC[C@@H]4CO4)[C@H]1OC[C@@H]1CO1)[C@@H]23)OCO5 | 39 | 70 | 70 | 44 | 77 | 44 | 
C#CCCCO[C@H]1[C@H]2c3cc4c(cc3CN3CCC(=C[C@@H]1OCCCC#C)[C@H]23)OCO4 | 1.3 | 25 | 17 | 32 | 22 | 7.1 | 
C#CCO[C@H]1[C@H]2c3cc4c(cc3CN3CCC(=C[C@@H]1O[Si](C(C)C)(C(C)C)C(C)C)[C@H]23)OCO4 | 3.6 | 8.2 | 6.2 | 27 | 8.3 | 4.9 | 
COCO[C@H]1[C@H]2c3cc4c(cc3CN3CCC(=C[C@@H]1OCOC)[C@H]23)OCO4 | 33 | 78 | 31 | > 100 | 55 | 53 | 
CO[C@H]1[C@H]2c3cc4c(cc3CN3CCC(=C[C@@H]1O)[C@H]23)OCO4 | 43 | > 100 | 39 | > 100 | > 100 | 64 | 
C#CCO[C@H]1[C@H]2c3cc4c(cc3CN3CCC(=C[C@@H]1OCC#C)[C@H]23)OCO4 | 23 | 52 | 28 | 27 | 32 | 68 | 
CO[C@H]1C=C2CCN3Cc4cc5c(cc4[C@H]([C@@H]1O)[C@@H]23)OCO5 [HIPPPAMINE] | 31 | 92 | 40 | 36 | > 100 | 84 | 
C=Cc1cccc2c1N(C)Cc1cc3c(cc1-2)OCO3 | 54 | 59 | 34 | > 100 | 82 | 89 | 
C1=C2CCN3Cc4cc5c(cc4[C@H]([C@H](OCC4CCC4)[C@H]1OCC1CCC1)[C@@H]23)OCO5 | 5.7 | 22 | 8 | 14 | 25 | 18 | 
C#CCCCCO[C@H]1C=C2CCN3Cc4cc5c(cc4[C@H]([C@@H]1O)[C@@H]23)OCO5 | 11 | 49 | 34 | 55 | 32 | 34 | 
C1=C2CCN3Cc4cc5c(cc4[C@H]([C@H](OCC4CC4)[C@H]1OCC1CC1)[C@@H]23)OCO5 | 4.2 | 33 | 27 | 23 | 28 | 37 | 1.19
O[C@H]1[C@H]2c3cc4c(cc3CN3CCC(=C[C@@H]1OC[C@@H]1CO1)[C@H]23)OCO4 | 54 | > 100 | 51 | > 100 | > 100 | 49 | 
